# According to patent US12421206B2, “Aryl-n-aryl derivatives for treating a RNA virus infection” (ABIVAX, priority 2018, dated 2025):
# Experiments:
# [1] = tested on: Chikungunya Virus (CHIKV) strain LR2006-OPY1 with GFP modification (CHIK 5'LR); experiment: microbe, parasite or virus in culture; type: cell-based; settings: HEK-293T, infected HEK293T cells; for inhibition at 1 µM: compounds at 1 μM, MOI 0.1, 22 h, mean of 2 experiments, values above 100 lowered to 100, read-out: % CHIKV Inhibition Mean (n = 2); for IC50: second round of experiments, range stated for listed compounds, read-out: IC50 (CHIKV inhibition)
# Method: The ability of the compounds to inhibit viral replication was assessed with an experiment in which infected cells were treated by compounds of formula (Ie) at 1 μM. As a positive control for inhibition of Chikungunya, Ribavirin was used. Toxicity of the compounds was assessed in parallel.
# Human embryonic kidney cells 293T (HEK293T, CRL-11268) were maintained in Dulbecco's modified Eagle's Medium (DMEM, 31966-021, Thermo Fisher Scientific) supplemented with 10% of fetal bovine serum (FBS), penicillin and streptomycin. After removal of the medium, cells were washed with Ca^2+ and Mg^2+-free salt solution to remove all traces of serum. After aspiration of wash solution, cells were dissociated with 0.25% Trypsin-EDTA solution and incubated 30 s at least in 37° C. incubator. Concentration of cell suspension was determined by an automatic cell counter (EVE, NanoEntek) and, if needed, adjusted to 0.33×10^6 cells/mL with DMEM medium supplemented with 10% FBS.
# 100 μL of the cell suspension were dispatched in a ViewPlate-96 Black (6005182, PerkinElmer) and in a transparent 96-well cell culture plate (655180, Greiner bio-one). After an incubation for 24 h at 37° C. under 5% of CO2, compounds were added at the proper concentration.
# An intermediate dilution was prepared with DMSO (D8418, Sigma) at 2 mM in a 96-well V-bottom microplate from the stock solution:
# Mix 1 μL of the 50 mM stock library in 25 μL of DMSO.
# Mix 2 μL of the 25 mM stock library in 25 μL of DMSO.
# An intermediate dilution was prepared with DMSO (D8418, Sigma) at 25 mM in a 96-well V-bottom microplate from the stock solution:
# Mix 2 μL of the 50 mM stock library in 2 μL of DMSO.
# Perform serial dilution in 2 μL of DMSO 13 times to reach 0.0015 mM. Proceed as follows in table III:
# For both screen and determination of IC50, 1 μL of each solution was added in a 1 mL Masterblock 96 wells (Greiner bio-one, 780261) containing 1 mL of DMEM medium. As a positive control, 5 μL of a 80 mM Ribavirin solution (R9644, Sigma) is added to 1 mL of DMEM. On the other hand, DMSO is used as a negative control.
# […]. Vector Borne Zoonotic Dis. 2006; 6(4)). This modified virus was used to infect cells at MOI 0.1. […].
# Medium was removed after 22 h at 37° C. under 5% of CO2 and cells were washed as described above. 60 μL of RIPA buffer (50 mM Tris-HCl pH8, 100 mM NaCl, 1 mM MgCl2, 1% Triton X-100) was added to cells and incubated for at least 20 min before reading fluorescence signal. Pierce 660 nm Protein Assay Reagent (22660, Thermo scientific) was used to normalize fluorescence signal by protein quantity.
# • A first round of experiments has been performed wherein the results are expressed as inhibition percentage, which is calculated as follows, through the following steps: • 1. Fluorescence intensity (FI)/Absorbance 660 nm (A660)=A
# This ratio allows considering the infection (GFP virus) to the protein amount. • 2. A′=A−background noise of non-infected plate, • 3. B=Fluorescence intensity (FI)/Absorbance 660 nm (A660) of infected but non treated plates, • 4. C=A′/B, which is then converted as the percentage of infection after treatment, compared to non-treated sample, and subsequently as the infection percentage. For instance, a value of 100 in Table IV here below means that, after treatment, the signal attributed to GFP fluorescence is abolished, which is correlated to the absence of infection. • 5. C′=100−C
# This value corresponds to the inhibition's percentage.
# The following Table IV encompasses said C′ value for some compounds, as calculated above with a mean of 2 experiments, and corresponding standard deviation.
# Some values were originally above 100. In these cases, the value has been lowered to 100. This means that some molecules also have an impact on the viability of the cells. In other words, the A value may be lower than the background noise.
# Moreover, for each measure, the test was performed with Ribavirin as control. The value of the inhibition percentage was checked, giving 100%.
# RSV A2 = experiment: RSV inhibition (cytopathic effect inhibition) using Viral ToxGlo assay in HEp-2 cells; type: cell-based; settings: human respiratory syncytial virus, RSV A2, MOI 0.5, HEp-2 cells, 72 h p.i.
# Procedure, shortened: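 HEp-2 cells in EMEM with 2% FBS were infected with RSV A2 at MOI 0.5 immediately after compound (≤1% DMSO) and incubated 72 h at 37 °C. Viral ToxGlo luminescence gave % cytopathic effect inhibition versus virus control, plus cytotoxicity versus cell control; EC50 derived from dose-response.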
# DENV-2 strain 16681 = experiment: DENV-2 inhibition (cytopathic effect inhibition) using Viral ToxGlo assay in A549 cells; type: cell-based, Dengue 2 virus; settings: Dengue virus, DENV2, 120 h, compounds at 10 μM, MOI 0.5, 5 days p.i., read-out: % DENV-2 Inhibition Mean (n = 3)
# Method: Protocol for Screening Antiviral Compounds for DENV-2 Inhibition and Cytotoxicity Using Viral ToxGlo Assay
# A549 cells were maintained in Dulbecco's Modified Eagle Medium (DMEM) supplemented with 10% fetal bovine serum, 100 U/ml penicillin and 100 μg/ml streptomycin. For the purposes of the screening assay they were grown to 90% confluency, trypsinized and recovered. The trypsin was neutralised with cell culture media and cells were centrifuged at 150×g for 5 minutes before discarding the supernatant and resuspending cell pellet in assay media (DMEM supplemented with 2% fetal bovine serum and 100 U/ml penicillin and 100 μg/ml streptomycin). The cells were seeded into 96-well white clear-bottomed cell culture plates at a density of 1.0×10^4 cells/well in 50 μl. For the media/background control column assay media only was added. Cell plates were placed in a humid chamber and incubated overnight at 37° C./5% CO2. After overnight incubation cells were checked for confluency and healthy appearance.
# Test compounds were prepared at a final concentration of 10 μM in a maximum DMSO concentration of 1% (final assay concentration maximal 0.1% DMSO) and added to the cell plates in volumes of 10 μl. For cell control and virus control wells the test article solvent only was added. As a positive inhibition control, 7-Deaza-2′-C-methyladenosine was added at 100 μM in 3 wells. Virus (DENV-2 strain 16681) or assay media for cytotoxicity test wells and media/cell control wells was added immediately after test articles at an MOI of 0.5, 40 for 96 well plates respectively. Virus suspension was prepared by thawing DENV-2 frozen stocks and diluting to the required concentration of plaque forming units in assay media.
# Cell plates were further incubated inside a humid chamber for 5 days p.i at 37° C./5% CO2. After the incubation period cells were observed under the microscope to check for characteristic cytopathic effect in virus control wells and healthy cells in the cell control wells. After plates were adjusted to room temperature 20 μl Viral ToxGlo (Promega) was added to each well of the 96-well cell plates. Plates were incubated at room temperature for 5 minutes before measuring the luminescence on a spectrophotometer (Envision, PerkinElmer).
# DENV-2 inhibition was calculated as percentage of cytopathic effect inhibition relative to the virus control and cytotoxicity as percentage of cell survival relative to cell control wells.
SMILES,inhibition at 1 µM [1],EC50 (RSV A2),inhibition at 10 µM (DENV-2 strain 16681),IC50 [1]
"O=C(NCCC1CCCC1)c1cccc(Nc2ccc(OCc3ccccn3)cc2)c1 [Compound 36, N-(2-cyclopentylethyl)-3-((4-(pyridin-2-ylmethoxy)phenyl)amino)benzamide]",99%,232 nM,,
"CC(C)CCNC(=O)c1cccc(Nc2ccc(OCc3ccccn3)cc2)c1 [Compound 37, N-isopentyl-3-((4-(pyridin-2-ylmethoxy)phenyl)amino)benzamide]",100%,,,
"Cc1cc(OCc2ccccn2)ccc1Nc1cccc(C(=O)NCCC2CCCC2)c1 [Compound 39, N-(2-cyclopentylethyl)-3-((2-methyl-4-(pyridin-2-ylmethoxy)phenyl)amino)benzamide]",98%,185 nM,,
"Cc1cc(Nc2cccc(C(=O)NCCC3CCCC3)c2)ccc1OCc1ccccn1 [Compound 40, N-(2-cyclopentylethyl)-3-((3-methyl-4-(pyridin-2-ylmethoxy)phenyl)amino)benzamide]",99%,,71%,
"O=C(NCCC1CCCC1)c1cccc(Nc2ccc(OCc3ccccn3)nc2)c1 [Compound 41, N-(2-cyclopentylethyl)-3-((6-(pyridin-2-ylmethoxy)pyridin-3-yl)amino)benzamide]",99%,,,
"COc1cc(Nc2cccc(C(=O)NCCC3CCCC3)c2)ccc1OCc1ccccn1 [Compound 43, N-(2-cyclopentylethyl)-3-((3-methoxy-4-(pyridin-2-ylmethoxy)phenyl)amino)benzamide]",100%,,71%,
"Cc1cc(OCc2ccccn2)ccc1Nc1cccc(C(=O)NCCC2CCCCC2)c1 [Compound 47, N-(2-cyclohexylethyl)-3-((2-methyl-4-(pyridin-2-ylmethoxy)phenyl)amino)benzamide]",96%,182 nM,,
"O=C(NCCC1CCC1)c1cccc(Nc2ccc(OCc3ccccn3)cc2)c1 [Compound 48, N-(2-cyclobutylethyl)-3-((4-(pyridin-2-ylmethoxy)phenyl)amino)benzamide]",98%,,110%,
"O=C(NCCC1CC1)c1cccc(Nc2ccc(OCc3ccccn3)cc2)c1 [Compound 49, N-(2-cyclopropylethyl)-3-((4-(pyridin-2-ylmethoxy)phenyl)amino)benzamide]",98%,,111%,
"O=C(NCCC1CCCC1)c1cccc(Nc2ccc(OCc3ccccc3F)cc2)c1 [Compound 50, N-(2-cyclopentylethyl)-3-((4-((2-fluorobenzyl)oxy)phenyl)amino)benzamide]",100%,,,
"N#Cc1ccccc1COc1ccc(Nc2cccc(C(=O)NCCC3CCCC3)c2)cc1 [Compound 51, 3-((4-((2-cyanobenzyl)oxy)phenyl)amino)-N-(2-cyclopentylethyl)benzamide]",100%,,,
"O=C(NCCC1CCCC1)c1cccc(Nc2ccc(OCc3ccccc3)cc2)c1 [Compound 52, 3-((4-(benzyloxy)phenyl)amino)-N-(2-cyclopentylethyl)benzamide]",99%,,,
"O=C(NCCC1CCCC1)c1cccc(Nc2ccc(OCc3ccccn3)c(O)c2)c1 [Compound 53, N-(2-cyclopentylethyl)-3-((3-hydroxy-4-(pyridin-2-ylmethoxy)phenyl)amino)benzamide]",,,,1 to 400 nM
"Cc1cc(OCc2ccccn2)ccc1Nc1cccc(C(=O)NCCC(C)C)c1 [Compound 54, N-isopentyl-3-((2-methyl-4-(pyridin-2-ylmethoxy)phenyl)amino)benzamide]",,177 nM,,1 to 400 nM
"CCc1cc(OCc2ccccn2)ccc1Nc1cccc(C(=O)NCCC(C)C)c1 [Compound 57, 3-((2-ethyl-4-(pyridin-2-ylmethoxy)phenyl)amino)-N-isopentylbenzamide]",,26 nM,,1 to 400 nM
"CCc1cc(OCc2ccccn2)ccc1Nc1cccc(C(=O)NCCC2CCCC2)c1 [Compound 58, N-(2-cyclopentylethyl)-3-((2-ethyl-4-(pyridin-2-ylmethoxy)phenyl)amino)benzamide]",,,,1 to 400 nM
"Cc1cc(OCc2ccccn2)ccc1Nc1cccc(C(=O)NCCC2CC(F)(F)C2)c1 [Compound 70, N-(2-(3,3-difluorocyclobutyl)ethyl)-3-((2-methyl-4-(pyridin-2-ylmethoxy)phenyl)amino)benzamide]",,660 nM,,1 to 400 nM
"Cc1cc(OCc2ccccn2)ccc1Nc1cccc(C(=O)NC2CCCC2)c1 [Compound 71, N-cyclopentyl-3-((2-methyl-4-(pyridin-2-ylmethoxy)phenyl)amino)benzamide]",,185 nM,,1 to 400 nM
"c1ccc(COc2ccc(Nc3cccc(OCCCC4CCCC4)c3)cc2)nc1 [Compound 73, 3-(3-cyclopentylpropoxy)-N-(4-(pyridin-2-ylmethoxy)phenyl)aniline]",100%,,,
